This note sets out measurements from patent publication US8399462B2, “JNK modulators” (Roche Palo Alto LLC, priority 2006, dated 2013).

As usually defined, the melting point is the temperature of the solid-liquid transition.

Several values for one entry are separate records, joined by “and”; a condition that tells them apart may be missing. Equal entries are not always repeated.

`CS(=O)(=O)CCCOc1cccc2c1ccn2-c1ccnc(N[C@H]2CC[C@H](C(=O)N3CCC(C#N)CC3)CC2)n1` [Compound 265, 1-(4-{4-[4-(3-methane-sulfonyl-propoxy)-indol-1-yl]-pyrimidin-2-ylamino}-cyclohexane-carbonyl)-piperidine-4-carbonitrile]: the melting point lay within 150.5 to 156.5 °C.

In turn, `CC(=O)N1CCN(c2cccc3c2ccn3-c2ccnc(N[C@H]3CC[C@H](NS(C)(=O)=O)CC3)n2)CC1` [Compound 267, N-(4-{4-[4-(4-acetyl-piperazin-1-yl)-indol-1-yl]-pyrimidin-2-yl-amino}-cyclohexyl)-methanesulfonamide] registered a melting point of 268 to 269 °C.

In turn, `COC1CN(C(=O)[C@H]2CC[C@H](Nc3nccc(-n4ccc5c(OCCCS(C)(=O)=O)cccc54)n3)CC2)C1` [Compound 274, (4-{4-[4-(3-methane-sulfonyl-propoxy)-indol-1-yl]-pyrimidin-2-ylamino}-cyclohexyl)-(3-methoxy-azetidin-1-yl)-methanone] came in with a melting point of 162 to 163 °C.

Take `CN(C)C1CCN(C(=O)[C@H]2CC[C@H](Nc3nccc(-n4ccc5c(OCCCS(C)(=O)=O)cccc54)n3)CC2)CC1` [Compound 275, (4-dimethylamino-piperidin-1-yl)-(4-{4-[4-(3-methanesulfonyl-propoxy)-indol-1-yl]-pyrimidin-2-ylamino}-cyclohexyl)-methanone]: the melting point is 182.4 to 183 °C and 178.9 to 180.6 °C.

For the molecule `NS(=O)(=O)CCCOc1cccc2c1cnn2-c1ccnc(N[C@H]2CC[C@H](C(=O)N3CCCC3)CC2)n1` [Compound 276], the melting point is 249 to 250 °C.

`CC(C)(O)[C@H]1CC[C@H](Nc2nccc(-n3cc(C(N)=O)c4ccccc43)n2)CC1` [Compound 277, 1-{2-[4-(2-hydroxy-prop-2-yl)-cyclohexyl-amino]-pyrimidin-4-yl}-1H-indole-3-carboxylic acid amide] displayed a melting point of 222 to 223 °C.

`CS(=O)(=O)CCCOc1cccc2c1ccn2-c1ccnc(NC2CCC(F)(F)CC2)n1` [Compound 278, (4,4-difluorocyclo-hexyl)-{4-[4-(3-methane-sulfonyl-propoxy)-indol-1-yl]-pyrimidin-2-yl}-amine] came in with a melting point of 200 to 201 °C.

As for `O=C([C@H]1CC[C@H](Nc2nccc(-n3ccc4c(OCC(F)(F)F)cccc43)n2)CC1)N1CCC(O)CC1` [Compound 279, (4-hydroxy-piperidin-1-yl)-(4-{4-[4-(2,2,2-trifluoroethoxy)-indol-1-yl]-pyrimidin-2-yl-amino}-cyclohexyl)-methanone], the melting point was 140.7 to 143.3 °C.

`CS(=O)(=O)CCCOc1cccc2c1ccn2-c1ccnc(N[C@H]2CC[C@H](NS(=O)(=O)CCCN3CCOCC3)CC2)n1` [Compound 280, 3-morpholin-4-yl-pro-pane-1-sulfonic acid (4-{4-[4-(3-methane-sulfonyl-propoxy)-indol-1-yl]-pyrimidin-2-yl-amino}-cyclohexyl)-amide] yielded a melting point of 174 to 179.3 °C.

The molecule `CC(C)(O)COc1cccc2c1ccn2-c1ccnc(N[C@H]2CC[C@H](C(=O)N3CCC(O)CC3)CC2)n1` [Compound 281, (4-{4-[4-(2-hydroxy-2-methyl-propoxy)-indol-1-yl]-pyrimidin-2-yl-amino}-cyclohexyl)-(4-hydroxy-piperidin-1-yl)-methanone] came in with a melting point of 174 to 176.9 °C.

For the molecule `COc1cccc2c1c(C(N)=O)cn2-c1ccnc(N[C@H]2CC[C@H](C(=O)N3CCC(O)CC3)CC2)n1` [Compound 282, 1-{2-[4-(4-hydroxy-piperidine-1-carbonyl)-cyclohexylamino]-pyrimidin-4-yl}-4-methoxy-1H-indole-3-carboxylic acid amide], the melting point is 278 to 280 °C.

As for `COc1cccc2c1c(C(N)=O)cn2-c1ccnc(N[C@H]2CC[C@H](N(C)S(C)(=O)=O)CC2)n1` [Compound 283, 1-{2-[4-(methane-sulfonyl-methylamino)-cyclohexylamino]-pyrimidin-4-yl}-4-methoxy-1H-indole-3-carboxylic acid amide], the melting point was in the range of 285 to 287 °C.

As for `COC(=O)CCCOc1cccc2c1ccn2-c1ccnc(N[C@H]2CC[C@H](N(C)S(C)(=O)=O)CC2)n1` [Compound 284, 4-(1-{2-[4-(methane-sulfonyl-methylamino)-cyclohexylamino]-pyrimidin-4-yl}-1H-indol-4-yloxy)-butyric acid methyl ester], the melting point lay in the range of 145 to 146 °C.

As to `CS(=O)(=O)CCCOc1cccc2c1ccn2-c1ccnc(N[C@H]2CC[C@H](CCl)CC2)n1` [Compound 285, (4-chloromethyl-cyclo-hexyl)-{4-[4-(3-methane-sulfonyl-propoxy)-indol-1-yl]-pyrimidin-2-yl}-amine], the melting point lay within 152 to 155 °C.

On to `CN(C)C1CCN(C(=O)[C@H]2CC[C@H](Nc3nccc(-n4ccc5c(OCCCC(F)(F)F)cccc54)n3)CC2)CC1` [Compound 286, (4-dimethylamino-piperidin-1-yl)-(4-{4-[4-(4,4,4-trifluorobutoxy)-indol-1-yl]-pyrimidin-2-ylamino}-cyclohexyl)-methanone], for which the melting point lay in the range of 179 to 180 °C.

`O=C([C@H]1CC[C@H](Nc2nccc(-n3ccc4c(OCC(O)CC(F)(F)F)cccc43)n2)CC1)N1CCC(O)CC1` (some centres unmarked) [Compound 288] returned a melting point of 215 to 215.5 °C.

`CS(=O)(=O)CCCOc1cccc2c1ccn2-c1ccnc(N[C@H]2CC[C@H](C(=O)N3CCCC(O)C3)CC2)n1` (some centres unmarked) [Compound 291, (3-hydroxy-piperidin-1-yl)-(4-{4-[4-(3-methane-sulfonyl-propoxy)-indol-1-yl]-pyrimidin-2-ylamino}-cyclohexyl)-methanone] returned a melting point of 167.3 to 170.5 °C.

Regarding `CC1(O)CCN(C(=O)[C@H]2CC[C@H](Nc3nccc(-n4ccc5c(OCCCS(C)(=O)=O)cccc54)n3)CC2)CC1` [Compound 292, (4-hydroxy-4-methyl-piperidin-1-yl)-(4-{4-[4-(3-methanesulfonyl-propoxy)-indol-1-yl]-pyrimidin-2-ylamino}-cyclohexyl)-methanone], the melting point was in the range of 132.6 to 137.7 °C.

Molecule `CNC1CCN(C(=O)[C@H]2CC[C@H](Nc3nccc(-n4ccc5c(OCCCS(C)(=O)=O)cccc54)n3)CC2)CC1` [Compound 293, (4-{4-[4-(3-methane-sulfonyl-propoxy)-indol-1-yl]-pyrimidin-2-ylamino}-cyclohexyl)-(4-methylamino-piperidin-1-yl)-methanone] showed a melting point of 187.5 to 189.1 °C.

In turn, `CS(=O)(=O)CCCOc1cccc2c1ccn2-c1ccnc(N[C@H]2CC[C@H](NS(=O)(=O)c3cccs3)CC2)n1` [Compound 294, Thiophene-2-sulfonic-acid (4-{4-[4-(3-methane-sulfonyl-propoxy)-indol-1-yl]-pyrimidin-2-ylamino}-cyclohexyl)-amide] came in with a melting point of 226 to 227 °C.

With `CN(C)C1CCN(C(=O)[C@H]2CC[C@H](Nc3nccc(-n4cc(C(N)=O)c5ccccc54)n3)CC2)CC1` [Compound 295, 1-{2-[4-(4-dimethylamino-piperidine-1-carbonyl)-cyclohexylamino]-pyrimidin-4-yl}-1H-indole-3-carboxylic acid amide], the melting point fell in the range of 219 to 221 °C.

`CS(=O)(=O)CCCOc1cccc2c1ccn2-c1ccnc(N[C@H]2CC[C@H](C(=O)N3CCC(S(C)(=O)=O)CC3)CC2)n1` [Compound 297, (4-methanesulfonyl-piperidin-1-yl)-(4-{4-[4-(3-methanesulfonyl-propoxy)-indol-1-yl]-pyrimidin-2-ylamino}-cyclohexyl)-methanone] came in with a melting point of 215 to 219 °C.

For the molecule `CSC[C@H]1CC[C@H](Nc2nccc(-n3ccc4c(OCCCS(C)(=O)=O)cccc43)n2)CC1` [Compound 298, {4-[4-(3-methane-sulfonyl-propoxy)-indol-1-yl]-pyrimidin-2-yl}-(4-methylsulfanylmethyl-cyclohexyl)-amine], the melting point was 158.7 to 159.6 °C.

For the molecule `NS(=O)(=O)CCCOc1cccc2c1ccn2-c1ccnc(N[C@H]2CC[C@H](C(=O)N3CCC3)CC2)n1` [Compound 299, 3-(1-{2-[4-(azetidin-1-carbonyl)-cyclohexyl-amino]-pyrimidin-4-yl}-1H-indol-4-yloxy)-propane-1-sulfonic acid amide], the melting point was in the range of 218.4 to 220.9 °C.

As to `CN(C)C1CCN(C(=O)[C@H]2CC[C@H](Nc3nccc(-n4ccc5c(OCCCS(N)(=O)=O)cccc54)n3)CC2)CC1` [Compound 300, 3-(1-{2-[4-(4-dimethyl-amino-piperidine-1-carbonyl)-cyclohexyl-amino]-pyrimidin-4-yl}-1H-indol-4-yloxy)-propane-1-sulfonic acid amide], the melting point fell in the range of 135.7 to 142.7 °C.

In turn, `CS(=O)(=O)CCCOc1cccc2c1ccn2-c1ccnc(N[C@H]2CC[C@H](C(=O)N3CCC(NC4CC4)CC3)CC2)n1` [Compound 302, (4-cyclopropylamino-piperidin-1-yl)-(4-{4-[4-(3-methanesulfonyl-propoxy)-indol-1-yl]-pyrimidin-2-ylamino}-cyclohexyl)-methanone] showed a melting point of 196.3 to 197.9 °C.

On to `CCNC(=O)[C@H]1CC[C@H](Nc2nccc(-n3ccc4c(OCCCS(=O)(=O)NC)cccc43)n2)CC1` [Compound 303, 4-{4-[4-(3-methane-sulfamoyl-propoxy)-indol-1-yl]-pyrimidin-2-ylamino}-cyclohexane-carboxylic acid ethyl-amide], for which the melting point was 201.7 to 203.2 °C.

On to `CS(=O)(=O)CCCOc1cccc2c1ccn2-c1ccnc(N[C@H]2CC[C@H](C(=O)N3CCC(CN)CC3)CC2)n1` [Compound 304, (4-aminomethyl-piperidin-1-yl)-(4-{4-[4-(3-methanesulfonyl-propoxy)-indol-1-yl]-pyrimidin-2-ylamino}-cyclohexyl)-methanone], for which the melting point was 124.1 to 126.1 °C and 124 to 126 °C.

`CS(=O)(=O)CCCOc1cccc2c1ccn2-c1ccnc(N[C@H]2CC[C@H](N3CCCS3(=O)=O)CC2)n1` [Compound 305, [4-(1,1-dioxo-isothiazolidin-2-yl)-cyclohexyl]-{4-[4-(3-methane-sulfonyl-propoxy)-indol-1-yl]-pyrimidin-2-yl}-amine] showed a melting point of 164.1 to 172.5 °C.
